Measurements from patent US9050347B2, “1,2,4-oxadiazole derivatives as drugs modulating the GLP-1 peptide receptor” (VIVIABIOTECH, S.L., priority 2011, dated 2015).

Key:
[1] = test system: rat insulinoma cells (INS1E cells); experiment: In vitro insulin secretion assay in INS1E cells; format: cell-based; conditions: for enhancement of glucose-dependent insulin release caused by GLP-1 / direct activation of glucose-activated insulin secretion: rat insulinoma cells; for enhancement of glucose-dependent insulin release caused by GLP-1: GLP-1 10 nM, FIG. 3; for direct activation of glucose-activated insulin secretion: compound alone, FIG. 2
Experimental: The insulin secretion studies were performed in INS1E cells cultured in RPMI 1640 medium (Invitrogen, Switzerland) containing 11 mM glucose. The culture medium was supplemented with 10 mM Hepes (pH 7.3), 10% (v/v) heat-inactivated fetal bovine serum (Brunschwig AG, Switzerland), […] b-mercaptoethanol, 1 mM sodium pyruvate, […] penicillin and […] streptomycin (INS medium). Static secretion studies were performed in culture plates with a diameter of 2.5 cm in which the cells were grown until reaching confluence criteria. The in vitro studies allowed identifying compounds with intrinsic capacity to release insulin (FIG. 2) or which enhance the incretin actions of GLP-1 (FIGS. 3, 4 and 5).

[2] = Parenteral glucose overload assay; format: in vivo, male Wistar rats
Experimental: All the in vivo experiments were performed using male Wistar rats with a weight of 200-450 g. The animals were housed in individual cages in a room with controlled temperature (23° C.) and humidity (50%) with a 12/12 light and dark cycle. The animals had water and food ad libitum except in specific experimental procedures. The animals were handled once a day during the two days before the experimental sessions. All the products were dissolved in a mixture of 5% DMSO, 5% Tween 60/90% saline and intraperitoneally administered. The vehicle was 0.9% sterile saline for the parenteral glucose overload.
The parenteral glucose overload assay was performed in male Wistar rats (Harlan, Barcelona) deprived of food for 18 hours. The animals received an injection of sterile saline containing glucose which was administered at the dose of 2 gr/kg in a volume of 2 ml/kg. The plasma glucose levels were measured by means of glucometers in tail blood using reactive strips of glucose oxidase, at times 0, 5, 10, 15, 30, 45, 60 and 120 minutes after the administration of glucose. The animals received an injection of the drugs under study 15 minutes before the administration of intraperitoneal glucose. After measuring the glucose, an analysis under the curve for compound and dose was performed. This analysis allows evaluating the time intensity of the hyperglycemia. […]

Compound: O=C(CCc1ccccc1)[C@@H]1CCCN(Cc2nc(-c3ccc(C(F)(F)F)cc3)no2)C1 [Compound C1, 3-phenyl-1-[(3R)-1-[[3-[4-(trifluoromethyl)phenyl]-1,2,4-oxadiazol-5-yl]methyl]piperidin-3-yl]propan-1-one]
- enhancement of glucose-dependent insulin release caused by GLP-1 [1]: enhance
- direct activation of glucose-activated insulin secretion [1]: direct activators

Compound: CC(=O)NCC[C@@H]1CCCCN1Cc1nc(-c2ccc(C(F)(F)F)cc2)no1 [Compound C3, N-[2-[(2S)-1-[[3-[4-(trifluoromethyl)phenyl]-1,2,4-oxadiazol-5-yl]methyl]piperidin-2-yl]ethyl]acetamide]
- enhancement of glucose-dependent insulin release caused by GLP-1 [1]: enhance

Compound: NC(=O)C1CCN(Cc2nc(-c3ccc(C(F)(F)F)cc3)no2)CC1 [Compound C4, 1[[3-[4-(trifluoromethyl)phenyl]-1,2,4-oxadiazol-5-yl]methyl]piperidin-4-carboxamide]
- enhancement of glucose-dependent insulin release caused by GLP-1 [1]: enhance
- direct activation of glucose-activated insulin secretion [1]: direct activators

Compound: FC(F)(F)c1ccc(-c2noc(CN3CCCC[C@H]3CCc3ccccn3)n2)cc1 [Compound C5, 5-[[(2S)-2-(2-pyridin-2-ylethyl)piperidin-1-yl]methyl]-3-[4-(trifluoromethyl)phenyl]-1,2,4-oxadiazole]
- enhancement of glucose-dependent insulin release caused by GLP-1 [1]: enhance
- direct activation of glucose-activated insulin secretion [1]: direct activators

Compound: FC(F)(F)c1ccc(-c2noc(CN3CCCC(CN4CCOCC4)C3)n2)cc1 (stereo not shown) [Compound C6, 4-[[1[[3-[4-(trifluoromethyl)phenyl]-1,2,4-oxadiazol-5-yl]methyl]piperidin-3-yl]methyl]morpholine]
- physiological response (glycemia) in the parenteral glucose overload test ([2]; rats deprived of food for 18 hours, glucose 2 gr/kg, compound 15 minutes before, FIG. 6): improves the physiological response
- intensity of the hyperglycemia (area under the curve of the glycemia) ([2]; rats, parenteral glucose overload test, several doses, FIG. 7): induces in a dose-dependent manner a reduction of the intensity of the hyperglycemia
- allosteric modulation of insulin secretion stimulated by a fixed concentration of GLP-1 ([1]; insulinoma cells, 0.2 nM GLP-1, increasing compound concentration, FIG. 5): enhances in a dose-dependent manner
- allosteric modulation of insulin release stimulated by increasing doses of GLP-1 ([1]; insulinoma cells, compound at 0.1 nM, FIG. 4): enhances
- enhancement of glucose-dependent insulin release caused by GLP-1 [1]: enhance
- direct activation of glucose-activated insulin secretion [1]: direct activators
